According to ChEMBL document CHEMBL1158866, “Bioactive labdane diterpenoids from Renealmia alpinia collected in the Suriname rainforest” (J Nat Prod, 1997):
Values after ≈ are worked out from the molar mass of the structure shown. Active and inactive are the calls of the source. No cut-off for these calls is given here.

Experiments:
Saccharomyces cerevisiae = assay: Antimicrobial activity against yeast Sc7; format: functional
M109 = assay: Cytotoxicity against mouse M109 cells; format: functional, cell-based
Candida tropicalis = assay: Antimicrobial activity against Candida tropicalis; format: functional
[1] = tested on: Meyerozyma guilliermondii; assay: Antimicrobial activity against sCandida guilliermondii; format: functional
KB = assay: Cytotoxicity against human KB cells; format: functional; settings: read-out: ED50 (the source's name)

MIC (Candida tropicalis)	MIC [1]	SMILES	IC12 (Saccharomyces cerevisiae)	Activity (M109)	EC50 (KB)	IC50 (M109)
6.25 µg/mL (≈ 20.7 µM)	6.25 µg/mL (≈ 20.7 µM)	C=C1CC[C@H]2C(C)(C)CCC[C@]2(C)[C@H]1C/C=C(/C=O)CC=O	46 µg/mL	inactive	40 µg/mL (≈ 132 µM)	–
–	–	C=C1CC[C@H]2C(C)(C)CCC[C@]2(C)[C@H]1C/C=C(/C=O)CC(=O)O	200 µg/mL	inactive	–	–
–	–	C=C1CC[C@H]2C(C)(C)CCC[C@]2(C)[C@H]1[C@@H]1C=C(C=O)C[C@H](O)O1	3 µg/mL	–	–	2.6 µg/mL (≈ 8.16 µM)
